Source: US9925251B2, “Treatments for Mycobacterium tuberculosis” (priority 2011, dated 2018)
pKd: −log10 of the molar value. Entries after “also recorded” stand apart in the source; their conditions may differ. Like-named read-outs stand apart in the source and are kept apart here. Starred links: 1 amine or outer side, 2 acyl side, 3 side chain; linkers in the order of their positions; H or OH if unused. Non-standard residues stand in square brackets, D forms with d. No end group written: not given here. *: point of attachment. Dpa(Dnp) = O=C([C@H](CNc1ccc([N+](=O)[O-])cc1[N+](=O)[O-])N[*:1])[*:2]; Mca = COc1ccc2c(CC(=O)*)cc(=O)oc2c1; Suc = O=C(CCC(=O)[*:2])[*:1]; Nle = CCCC[C@H](N)C(=O)O; Cbz = O=C(OCc1ccccc1)*; amc = not defined here

Legend:
Mtb ClpP1P2 [1] = molecular target: T1, Mtb ClpP1P2 (Mycobacterium tuberculosis, UniProt P9WPC3+P9WPC5); format: biochemical; conditions: for cleavage by ClpP1P2 (in words): activator present
ClpC1 ATPase = ClpC1 ATPase (Mycobacterium tuberculosis, UniProt P9WPC9); format: biochemical
Mtb ClpP1P2 [2] = molecular target: T1, Mtb ClpP1P2; experiment: biochemical; format: biochemical
Msm ptet_clpP2 = format: cell-based, Mycobacterium smegmatis; conditions: for growth of strain: sub-MIC concentration
Mtb ClpP1P2 [3] = molecular target: T1, Mtb ClpP1P2; format: biochemical; conditions: 10 best substrates each with Met, Leu, Phe, Ala at P1; library screening
Mtb ClpP1P2 [4] = molecular target: T1, Mtb ClpP1P2; format: biochemical
[5] = substance is the substrate, Z-Gly-Gly-Leu-amc = 100
[6] = Peptide Derivatives (1 mM), peptidase activity with Z-Gly-Gly-Leu-amc, Z-Leu-Leu-aldehyde 100.0
[7] = Peptide Aldehydes (0.5 mM), peptidase activity with Z-Gly-Gly-Leu-amc, maximal activation by Z-Leu-Nle-aldehyde taken as 100%
[8] = low concentration of ATc (ClpP2 partially depleted)

Sequence of ClpC1 ATPase (P9WPC9 whole entry): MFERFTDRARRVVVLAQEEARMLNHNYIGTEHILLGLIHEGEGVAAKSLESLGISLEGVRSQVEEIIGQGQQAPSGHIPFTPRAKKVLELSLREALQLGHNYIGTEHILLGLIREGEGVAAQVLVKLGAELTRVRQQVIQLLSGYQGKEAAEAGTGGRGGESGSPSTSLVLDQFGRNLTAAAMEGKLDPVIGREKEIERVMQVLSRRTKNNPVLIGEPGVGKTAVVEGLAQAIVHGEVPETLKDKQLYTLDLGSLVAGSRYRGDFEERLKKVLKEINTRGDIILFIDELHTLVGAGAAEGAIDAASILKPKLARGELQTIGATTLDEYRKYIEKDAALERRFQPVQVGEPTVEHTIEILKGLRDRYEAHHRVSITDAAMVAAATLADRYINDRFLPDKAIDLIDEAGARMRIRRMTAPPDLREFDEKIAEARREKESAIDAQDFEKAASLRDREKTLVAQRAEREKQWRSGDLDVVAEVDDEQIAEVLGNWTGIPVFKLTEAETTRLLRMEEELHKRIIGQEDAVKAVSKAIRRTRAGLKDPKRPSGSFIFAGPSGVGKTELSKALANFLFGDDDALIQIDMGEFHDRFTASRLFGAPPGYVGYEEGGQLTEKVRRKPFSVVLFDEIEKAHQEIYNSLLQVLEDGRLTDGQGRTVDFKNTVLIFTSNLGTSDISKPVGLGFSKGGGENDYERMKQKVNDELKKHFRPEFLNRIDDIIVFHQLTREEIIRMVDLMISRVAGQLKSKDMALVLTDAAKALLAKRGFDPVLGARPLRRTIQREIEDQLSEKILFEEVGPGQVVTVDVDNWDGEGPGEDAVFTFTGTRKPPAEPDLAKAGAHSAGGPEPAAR

Compound: Mca-GHQQYAMK-Dpa(Dnp)-amide (Mca-GHQQYAMK[Dpa(Dnp)]-NH2)
- cleavage by ClpP1P2 (in words) (Mtb ClpP1P2 [1]; substance is the substrate): could cleave

Compound: Mca-GNQQYKMK-Dpa(Dnp)-amide (Mca-GNQQYKMK[Dpa(Dnp)]-NH2)
- cleavage by ClpP1P2 (in words) (Mtb ClpP1P2 [1]; substance is the substrate): could cleave

Compound: Oc1c(Cl)cc(Cl)c(Cl)c1Cc1c(O)c(Cl)cc(Cl)c1Cl [hexachlorophene]
- effect on ClpC1 ATPase activity (in words) (ClpC1 ATPase): inhibits
- concentration at which the inhibitor works (ClpC1 ATPase; inhibition of ClpC1 ATPase activity): 5 to 10 mM

Compound: Ala-Ala-Phe-amc
- RELATIVE RATES OF HYDROLYSIS (%) (Mtb ClpP1P2 [1]; [5]): 87.0%

Compound: Z-Leu-Leu-leucinal
- stimulation of ClpP1P2 activity (in words) (Mtb ClpP1P2 [2]; against Z-Gly-Gly-Leu-AMC): significantly less active

Compound: Z-Gly-Gly-Arg-amc
- RELATIVE RATES OF HYDROLYSIS (%) (Mtb ClpP1P2 [1]; [5]): 0.55%

Compound: Cc1cc(=O)oc2cc(NC(=O)C(N)Cc3ccccc3)ccc12 (stereo not drawn) [Phe-amc]
- RELATIVE RATES OF HYDROLYSIS (%) (Mtb ClpP1P2 [1]): 0.26%

Compound: Z-Gly-Leu
- RELATIVE ACTIVITY (%) (Mtb ClpP1P2 [2]; [6]): 4.8%
- stimulation of ClpP1P2 activity (in words) (Mtb ClpP1P2 [2]; against Z-Gly-Gly-Leu-AMC): much smaller stimulation

Compound: Z-Gly-Gly-Leu-amc
- RELATIVE RATES OF HYDROLYSIS (%) (Mtb ClpP1P2 [1]; [5]): 100.0%

Compound: CC(C)C[C@@H](C=O)NC(=O)[C@H](CC(C)C)NC(=O)OCc1ccccc1 [Z-Leu-Leu-aldehyde]
- pKd (Mtb ClpP1P2 [2]): 3.62
- RELATIVE ACTIVITY (%) (Mtb ClpP1P2 [2]; [7]): 77.6%
- RELATIVE ACTIVITY (%) (Mtb ClpP1P2 [2]; [6]): 100.0%
- stimulation of ClpP1P2 activity (in words) (Mtb ClpP1P2 [2]; against Z-Gly-Gly-Leu-AMC): strongest stimulation

Compound: [H]/N=C(/N)N[C@H]1[C@H](O)[C@@H](O)[C@H](O[C@@H]2O[C@@H](C)[C@](O)(C=O)[C@H]2O[C@@H]2O[C@@H](CO)[C@H](O)[C@@H](O)[C@@H]2NC)[C@@H](N/C(N)=N\[H])[C@@H]1O [streptomycin]
- growth of strain (Msm ptet_clpP2; high concentration of ATc): no effect on growth
- growth of strain (Msm ptet_clpP2; [8]): significantly inhibited the growth

Compound: Z-Ala-Ala-Ala-amc
- RELATIVE RATES OF HYDROLYSIS (%) (Mtb ClpP1P2 [1]; [5]): 3.6%

Compound: CC(C)C[C@H](NC(=O)[C@H](CC(C)C)NC(=O)OCc1ccccc1)C(=O)O [Z-Leu-Leu]
- pKd (Mtb ClpP1P2 [2]): 2.66
- RELATIVE ACTIVITY (%) (Mtb ClpP1P2 [2]; Active enzyme diluted (200x) without activator, then activator re-added): 96.0%
- RELATIVE ACTIVITY (%) (Mtb ClpP1P2 [2]; Active enzyme diluted (200x), with activator): 100.0%
- RELATIVE ACTIVITY (%) (Mtb ClpP1P2 [2]; Active enzyme diluted (200x), without activator): 1.2%
- RELATIVE ACTIVITY (%) (Mtb ClpP1P2 [2]; [6]): 18.5%
- stimulation of ClpP1P2 activity (in words) (Mtb ClpP1P2 [2]; against Z-Gly-Gly-Leu-AMC): could also activate ClpP1P2
- effect on ClpC1 ATPase activity (in words) (ClpC1 ATPase): did not influence

Compound: Suc-Ala-Ala-Pro-Ala-amc (Suc-AAPA-amc; reading uncertain)
- RELATIVE RATES OF HYDROLYSIS (%) (Mtb ClpP1P2 [1]; [5]): 0.08%

Compound: Z-Leu-Nle-aldehyde
- RELATIVE ACTIVITY (%) (Mtb ClpP1P2 [2]; [7]): 100.0%

Compound: Z-Leu-Leu-Arg-amc
- RELATIVE RATES OF HYDROLYSIS (%) (Mtb ClpP1P2 [1]; [5]): 0.25%

Compound: Z-Leu-Leu-Leu-amc
- RELATIVE RATES OF HYDROLYSIS (%) (Mtb ClpP1P2 [1]; [5]): 0.15%

Compound: NCC[C@H](O)C(=O)N[C@@H]1C[C@H](N)[C@@H](O[C@H]2O[C@H](CN)[C@@H](O)[C@H](O)[C@H]2O)[C@H](O)[C@H]1O[C@H]1O[C@H](CO)[C@@H](O)[C@H](N)[C@H]1O [amikacin]
- growth of strain (Msm ptet_clpP2; high concentration of ATc): no effect on growth
- growth of strain (Msm ptet_clpP2; [8]): significantly inhibited the growth

Compound: Cbz-Gly-Gly-Leu
- RELATIVE ACTIVITY (%) (Mtb ClpP1P2 [2]; [6]): 3.7%

Compound: Mca-KKPTPIQLN-Dpa(Dnp)-amide (Mca-KKPTPIQLN[Dpa(Dnp)]-NH2)
- cleavage by ClpP1P2 (in words) (Mtb ClpP1P2 [1]; substance is the substrate): could cleave

Compound: Suc-Leu-Tyr-amc
- RELATIVE RATES OF HYDROLYSIS (%) (Mtb ClpP1P2 [1]; [5]): 11.5%

Compound: Cbz-Gly-Leu-Leu
- stimulation of ClpP1P2 activity (in words) (Mtb ClpP1P2 [2]; against Z-Gly-Gly-Leu-AMC): much smaller stimulation

Compound: Z-Leu-Leu-alcohol
- RELATIVE ACTIVITY (%) (Mtb ClpP1P2 [2]; [6]): 17.6%
- stimulation of ClpP1P2 activity (in words) (Mtb ClpP1P2 [2]; against Z-Gly-Gly-Leu-AMC): could also activate ClpP1P2

Compound: O=C(N[C@H](CO)[C@H](O)c1ccc([N+](=O)[O-])cc1)C(Cl)Cl [chloramphenicol]
- viability, low versus high ATc (Msm ptet_clpP2; sublethal concentration): no difference in viability

Compound: N-acetyl-Pro-Lys-Met-aminomethylcoumarin [PKM]
- Norm RFU (Mtb ClpP1P2 [3]): 1497

Compound: Z-Pro-Nlee-Asp-aldehyde
- RELATIVE ACTIVITY (%) (Mtb ClpP1P2 [2]; [7]): 1.2%
- stimulation of ClpP1P2 activity (in words) (Mtb ClpP1P2 [2]; against Z-Gly-Gly-Leu-AMC): did not show any stimulatory capacity

Compound: Cbz-Val-Phe-aldehyde
- RELATIVE ACTIVITY (%) (Mtb ClpP1P2 [2]; [7]): 1.9%
- stimulation of ClpP1P2 activity (in words) (Mtb ClpP1P2 [2]; against Z-Gly-Gly-Leu-AMC): did not show any stimulatory capacity

Compound: Z-Leu-Leu-Glu-amc
- RELATIVE RATES OF HYDROLYSIS (%) (Mtb ClpP1P2 [1]; [5]): 0.35%

Compound: Suc-Ala-Leu-Pro-Phe-amc (Suc-ALPF-amc; reading uncertain)
- RELATIVE RATES OF HYDROLYSIS (%) (Mtb ClpP1P2 [1]; [5]): 0.12%

Compound: Cbz-AP[Nle]D-aldehyde
- RELATIVE ACTIVITY (%) (Mtb ClpP1P2 [2]; [7]): 0.8%

Compound: CC(C)C[C@@H](CO)NC(=O)OCc1ccccc1 [Z-Leu-alcohol]
- RELATIVE ACTIVITY (%) (Mtb ClpP1P2 [2]): 2.4%

Compound: O=c1oc(Cl)c(Cl)c2ccccc12 [dichloroisocoumarin]
- inhibition of ClpP1P2 activity (in words) (Mtb ClpP1P2 [4]): sensitive; also recorded: completely inhibit

Compound: Asp-amc
- RELATIVE RATES OF HYDROLYSIS (%) (Mtb ClpP1P2 [1]): 0.1%

Compound: Z-Phe-Val-Arg-amc
- RELATIVE RATES OF HYDROLYSIS (%) (Mtb ClpP1P2 [1]; [5]): 0.18%

Compound: Ac-Nle-Pro-Nle-Asp-amc
- RELATIVE RATES OF HYDROLYSIS (%) (Mtb ClpP1P2 [1]; [5]): 36.0%

Compound: Mca-GNTQFKRR-Dpa(Dnp)-amide (Mca-GNTQFKRR[Dpa(Dnp)]-NH2)
- cleavage by ClpP1P2 (in words) (Mtb ClpP1P2 [1]; substance is the substrate): could cleave

Compound: Suc-Leu-Leu-Val-Tyr-amc (Suc-LLVY-amc; reading uncertain)
- RELATIVE RATES OF HYDROLYSIS (%) (Mtb ClpP1P2 [1]; [5]): 0.8%

Compound: CC(C)C[C@H](NC(=O)OCc1ccccc1)C(=O)O [Z-Leu]
- RELATIVE ACTIVITY (%) (Mtb ClpP1P2 [2]): 5.3%
- stimulation of ClpP1P2 activity (in words) (Mtb ClpP1P2 [2]): much smaller stimulation

Compound: Cc1cc(=O)oc2cc(NC(=O)[C@@H](N)CC(C)C)ccc12 [Leu-amc]
- RELATIVE RATES OF HYDROLYSIS (%) (Mtb ClpP1P2 [1]): 0.36%

Compound: Suc-Ala-Ala-Phe-amc
- RELATIVE RATES OF HYDROLYSIS (%) (Mtb ClpP1P2 [1]; [5]): 42.0%

Compound: Cc1cc(=O)oc2cc(NC(=O)C(C)N)ccc12 (stereo not drawn) [Ala-amc]
- RELATIVE RATES OF HYDROLYSIS (%) (Mtb ClpP1P2 [1]): 0.78%

Compound: Cbz-Phe-Tyr-aldehyde
- RELATIVE ACTIVITY (%) (Mtb ClpP1P2 [2]; [7]): 1.3%

Compound: Z-Leu-Leu-amc
- RELATIVE RATES OF HYDROLYSIS (%) (Mtb ClpP1P2 [1]; [5]): 4.7%
